Where two headings read alike, the source gives them in different places. Peptide text beside a SMILES is read from it.
How the values were obtained:
PAS-B domain of HIF-1α = molecular target: T1, PAS-B domain of HIF-1α (Homo sapiens, UniProt Q16665); assay: Microscale thermophoresis (MST) binding to HIF-1α PAS-B domain
T1 construct: The HIF-1a PAS-B domain was expressed and purified as previously described; made in house
Protocol: We synthesized the top 20 cyclic peptides from the ranking approach. We also synthesized cyclo-CLLFVY as a control.[14] These compounds were assessed for binding to the PAS-B domain of HIF-1α by microscale thermophoresis (MST). […]

HIF-1α/HIF-1β PPI = assay: SICLOPPS CX5 library screen in HIF-1 RTHS with biopanning and NGS; type: cell-based, E. coli; details: after 2 rounds of biopanning
Source text: The HIF-1 RTHS links the PPI between HIF-1α-P22 and HIF-1β-434 fusion proteins to the life/death of the host E. coli via three reporter genes.[14] Interaction of HIF-1α and HIF-1β results in the formation of a chimeric P22/434 repressor that inhibits the transcription of the KanR and His3 reporter genes, which are required for cell survival in selection media (Figure S1). Disruption of the HIF-1α/HIF-1β PPI also disrupts the repressor complex, leading to transcription of the reporter genes and survival of colonies that contain cyclic peptide HIF-1 inhibitors. Thus, cells containing cyclic peptide inhibitors of the targeted PPI will survive and grow on selective media, whereas all others will not. The HIF-1 RTHS cells were transformed with the sequenced CX5 library and, after recovery, plated onto a selective medium. After incubation for 48 h at 37 °C, selection plates were scraped to collect all colonies, and the SICLOPPS plasmids were isolated. The extein coding region of these plasmids was subsequently sequenced by NGS. We observed sequence enrichment after one round of biopanning, with the three sequences (CAAAAA, CRLYVL, and CVTYVL) making up 7.8% of the entire library with over 10 000 copies each per 1 M reads (Figure 2a). The prevalence of the control sequence was reduced by 44% from 80 000 to 45 000 copies per million reads, which further indicated enrichment of cyclic peptide inhibitors of the HIF-1α/HIF-1β PPI in the RTHS. The next 47 sequences were present with over 1000 copies after round 1 which made up a further 15% of the library (Figure 2a). HIF-1 RTHS cells were transformed with the SICLOPPS plasmid library isolated from round 1 of biopanning, for a second round of selection. After incubation, all colonies were scraped, and plasmids were isolated and sequenced by NGS as before. We observed further sequence enrichment after the second round of biopanning, evident by the shift of the library population from the mostly low-prevalence sequences in both the naïve library and after one round of biopanning to mostly highly prevalent cyclic peptide sequences after round 2 of biopanning (Figure 2b). With 159 000 copies per 1 M reads, the most prevalent sequence is CRTYIL, while the next 14 sequences were all present with more than 10 000 copies per 1 M. The top 15 sequences make up over 50% of the entire library. The CA5 internal standard dropped to 0.5%, providing further evidence of enrichment of active inhibitors during biopanning.
All reagents were purchased from Fisher Scientific or Sigma Aldrich UK unless specified otherwise.
Restriction enzymes and microbiology reagents were purchased from New England Biolabs Inc., FisherScientific (UK) or Promega (UK) and were used as directed by the manufacturer. Primers and oligonucleotides were synthesised by Integrated DNA Technologies (UK). DNA sequencing was carried out by Eurofins MWG Operon (Germany).
Construction of the RTHS and SICLOPPS library was conducted as previously described.2 […]
Electrocompetent RTHS-HIF 1 cells2 were transformed with 100 ng freshly prepared SICLOPPS CX5 library, prepared as previously detailed.3 The recovery mixture was plated on 6 square plates containing M9 minimal media supplemented with 50 µg/mL ampicillin, 25 µg/mL Spectinomycin, 50 µg/mL kanamycin, 35 µg/mL chloramphenicol, 100 µM IPTG, 6.5 µM L-arabinose and 7.5 mM 3-amino triazole and incubate at 37 °C for 48 h. To ensure sufficie transformation efficiency, 10 µL transformation mixture was subjected to 10-fold serial dilutions plated on LB-agar with 35 µg/m […]
Chloramphenicol. […] All cells were […]
then harvested by resuspending the colonies in a total of 50 mL LB medium and transferring to a centrifuge tube and centrifugation for 30 min at 4000 rpm and 4°C. The cell pellet was then subjected to maxi prep (GeneJET Plasmid Maxiprep kit Thermo Scientific) and the resulting plasmid library was used for the next round of biopanning and NGS. The second round of bio panning was […]

[1] = MST, HIF-1α PAS-B, mean (n = 3) ± SEM, read-out: KD

T1 sequence (Q16665 228-298 limits assumed): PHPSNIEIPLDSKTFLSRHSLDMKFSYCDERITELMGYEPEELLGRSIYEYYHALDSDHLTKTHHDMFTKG

| Compound | Kd (PAS-B domain of HIF-1α; [1]) | Enrichment after pan 2 [%] (HIF-1α/HIF-1β PPI) | Kd (PAS-B domain of HIF-1α) | fold better KD than the control peptide cyclo-CLLFVY in the same assay (PAS-B domain of HIF-1α; MST, HIF-1α) |
| --- | --- | --- | --- | --- |
| CC[C@H](C)[C@@H]1NC(=O)[C@H](CCCNC(=N)N)NC(=O)[C@H](CCSC)NC(=O)[C@H](C(C)C)NC(=O)[C@H](CS)NC(=O)[C@H](C)NC1=O [CVMRIA, cyclo-CVMRIA] (cyclo(ACVMRI)) | 168 ± 40 µM | 0.6968% |  |  |
| CC(C)C[C@@H]1NC(=O)[C@H](CS)NC(=O)[C@H](Cc2ccccc2)NC(=O)[C@H](CC(C)C)NC(=O)[C@H](CC(C)C)NC(=O)[C@H](CS)NC1=O [CLLFCL, cyclo-CLLFCL] (cyclo(CLCLLF)) |  | 1.071% | 0.47 ± 0.01 µM | > 80 fold |
| CC[C@H](C)[C@@H]1NC(=O)[C@H](Cc2ccc(O)cc2)NC(=O)[C@H]([C@@H](C)O)NC(=O)[C@H](CCCNC(=N)N)NC(=O)[C@H](CS)NC(=O)[C@H](CC(C)C)NC1=O [CRTYIL, cyclo-CRTYIL] (cyclo(CRTYIL)) | 24 ± 1 µM | 15.78% |  |  |
| CSCC[C@@H]1NC(=O)[C@H](CCCNC(=N)N)NC(=O)[C@H](CS)NC(=O)[C@H](CC(C)C)NC(=O)[C@H](C(C)C)NC(=O)[C@H](Cc2ccc(O)cc2)NC1=O [CRMYVL, cyclo-CRMYVL] (cyclo(CRMYVL)) | 58 ± 17 µM |  |  |  |
| CC[C@H](C)[C@@H]1NC(=O)[C@H](Cc2ccc(O)cc2)NC(=O)[C@H](CC(C)C)NC(=O)[C@H](CCCNC(=N)N)NC(=O)[C@H](CS)NC(=O)[C@H](C(C)C)NC1=O [CRLYIV, cyclo-CRLYIV] (cyclo(CRLYIV)) | 122 ± 4 µM | 2.142% |  |  |
| CC(C)C[C@@H]1NC(=O)[C@H](C(C)C)NC(=O)[C@H](Cc2ccccc2)NC(=O)[C@H](CO)NC(=O)[C@H](CCCNC(=N)N)NC(=O)[C@H](CS)NC1=O [CRSFVL] (cyclo(CRSFVL)) |  | 0.6155% |  |  |
| CC(C)C[C@@H]1NC(=O)[C@H](CCCCN)NC(=O)[C@H](CS)NC(=O)[C@H](CC(C)C)NC(=O)[C@H](CC(C)C)NC(=O)[C@H](Cc2ccccc2)NC1=O [CKLFLL] (cyclo(CKLFLL)) |  | 0.6884% |  |  |
| CC(C)C[C@@H]1NC(=O)[C@H](Cc2c[nH]c3ccccc23)NC(=O)[C@H](C(C)C)NC(=O)[C@H](CO)NC(=O)[C@H](CS)NC(=O)[C@H](Cc2ccc(O)cc2)NC1=O [CSVWLY, cyclo-CSVWLY] (cyclo(CSVWLY)) | 103 ± 28 µM | 2.022% |  |  |
| CC[C@H](C)[C@@H]1NC(=O)[C@H](CC(C)C)NC(=O)[C@H](CCCNC(=N)N)NC(=O)[C@H](CS)NC(=O)[C@H](C(C)C)NC(=O)[C@H]([C@@H](C)CC)NC1=O [CRLIIV, cyclo-CRLIIV] (cyclo(CRLIIV)) | 28 ± 2 µM | 1.138% |  |  |
| CC[C@H](C)[C@@H]1NC(=O)[C@H](CC(C)C)NC(=O)[C@H](Cc2ccc(O)cc2)NC(=O)[C@H](CCCNC(=N)N)NC(=O)[C@H](CS)NC(=O)[C@H](CC(C)C)NC1=O [CRYLIL, cyclo-CRYLIL] (cyclo(CRYLIL)) | 20 ± 2 µM | 0.6083% |  |  |
| CC[C@H](C)[C@@H]1NC(=O)[C@H](CCCNC(=N)N)NC(=O)[C@H](CCCNC(=N)N)NC(=O)[C@H](CS)NC(=O)[C@H](CC(C)C)NC(=O)[C@H]([C@@H](C)CC)NC1=O [CRRIIL, cyclo-CRRIIL] (cyclo(CRRIIL)) | 8 ± 1 µM | 0.9912% |  |  |
| CC[C@H](C)[C@@H]1NC(=O)[C@H](CC(C)C)NC(=O)[C@H](CC(C)C)NC(=O)[C@H](CCCNC(=N)N)NC(=O)[C@H](CS)NC(=O)[C@H](CC(C)C)NC1=O [CRLLIL, cyclo-CRLLIL] (cyclo(CRLLIL)) | 20 ± 1 µM | 1.196% |  |  |
| CC(C)C[C@@H]1NC(=O)[C@H](CC(C)C)NC(=O)[C@H](Cc2ccccc2)NC(=O)[C@H](C(C)C)NC(=O)[C@H](CCCNC(=N)N)NC(=O)[C@H](CS)NC1=O [CRVFLL] (cyclo(CRVFLL)) |  | 0.6625% |  |  |
| CC(C)C[C@@H]1NC(=O)[C@H](C(C)C)NC(=O)[C@H](CC(C)C)NC(=O)[C@H](C(C)C)NC(=O)[C@H](CCCNC(=N)N)NC(=O)[C@H](CS)NC1=O [CRVLVL, cyclo-CRVLVL] (cyclo(CRVLVL)) | 201 ± 16 µM | 0.8272% |  |  |
| CC(C)C[C@@H]1NC(=O)[C@H](CCCNC(=N)N)NC(=O)[C@H](CS)NC(=O)[C@H](CC(C)C)NC(=O)[C@H](C(C)C)NC(=O)[C@H](Cc2ccc(O)cc2)NC1=O [CRLYVL, cyclo-CRLYVL] (cyclo(CRLYVL)) | 150 ± 40 µM | 8.962% |  |  |
| cyclo-CVTYVL |  | 3.732% |  |  |
| CC(C)C[C@@H]1NC(=O)[C@H](CC(N)=O)NC(=O)[C@H](CC(C)C)NC(=O)[C@H](CC(C)C)NC(=O)[C@H](Cc2ccccc2)NC(=O)[C@H](CS)NC1=O [CFLLNL, cyclo-CFLLNL] (cyclo(CFLLNL)) | 103 ± 8 µM | 1.509% |  |  |
| CC[C@H](C)[C@@H]1NC(=O)[C@H](Cc2ccc(O)cc2)NC(=O)[C@H](C(C)C)NC(=O)[C@H](CCCNC(=N)N)NC(=O)[C@H](CS)NC(=O)[C@H](CC(C)C)NC1=O [CRVYIL, cyclo-CRVYIL] (cyclo(CRVYIL)) | 31 ± 6 µM | 1.306% |  |  |
| CC[C@H](C)[C@@H]1NC(=O)[C@H](Cc2ccccc2)NC(=O)[C@H](CCSC)NC(=O)[C@H](CCCNC(=N)N)NC(=O)[C@H](CS)NC(=O)[C@H](CC(C)C)NC1=O [CRMFIL, cyclo-CRMFIL] (cyclo(CRMFIL)) | 20 ± 4 µM | 0.6746% |  |  |
| CC(C)C[C@@H]1NC(=O)[C@H](C(C)C)NC(=O)[C@H](Cc2ccc(O)cc2)NC(=O)[C@H](Cc2ccc(O)cc2)NC(=O)[C@H](CCCNC(=N)N)NC(=O)[C@H](CS)NC1=O [CRYYVL, cyclo-CRYYVL] (cyclo(CRYYVL)) | 59 ± 7 µM | 0.6784% |  |  |
| CC[C@H](C)[C@@H]1NC(=O)[C@H](CC(C)C)NC(=O)[C@H]([C@@H](C)CC)NC(=O)[C@H](CCCNC(=N)N)NC(=O)[C@H](CS)NC(=O)[C@H](CC(C)C)NC1=O [CRILIL, cyclo-CRILIL] (cyclo(CRILIL)) | 20 ± 1 µM | 2.819% |  |  |
| CC(C)C[C@@H]1NC(=O)[C@H](CC(C)C)NC(=O)[C@H](Cc2ccccc2)NC(=O)[C@H](C(C)C)NC(=O)[C@H](CCCCN)NC(=O)[C@H](CS)NC1=O [CKVFLL, cyclo-CKVFLL] (cyclo(CKVFLL)) | 42 ± 12 µM | 3.064% |  |  |
| CC[C@H](C)[C@@H]1NC(=O)[C@H]([C@@H](C)O)NC(=O)[C@H](CCCNC(=N)N)NC(=O)[C@H](CS)NC(=O)[C@H](CC(C)C)NC(=O)[C@H](C(C)C)NC1=O [CRTIVL, cyclo-CRTIVL] (cyclo(CRTIVL)) | > 250 µM | 3.427% |  |  |
